From publication PMC2955773 (ACS chemical biology, 2010) come the findings set out here.

For assay [1], the system named is mitochondrial ROS generation in DLD1. The assay can be described thus: Mitochondrial ROS generation by MitoSox dye. The assay is classed as cell-based, human. To be noted: compared to DMSO.
The target of assay [2] is T1, Nox2 (Homo sapiens, UniProt P04839).
T1 sequence (P04839 2-570 limits assumed): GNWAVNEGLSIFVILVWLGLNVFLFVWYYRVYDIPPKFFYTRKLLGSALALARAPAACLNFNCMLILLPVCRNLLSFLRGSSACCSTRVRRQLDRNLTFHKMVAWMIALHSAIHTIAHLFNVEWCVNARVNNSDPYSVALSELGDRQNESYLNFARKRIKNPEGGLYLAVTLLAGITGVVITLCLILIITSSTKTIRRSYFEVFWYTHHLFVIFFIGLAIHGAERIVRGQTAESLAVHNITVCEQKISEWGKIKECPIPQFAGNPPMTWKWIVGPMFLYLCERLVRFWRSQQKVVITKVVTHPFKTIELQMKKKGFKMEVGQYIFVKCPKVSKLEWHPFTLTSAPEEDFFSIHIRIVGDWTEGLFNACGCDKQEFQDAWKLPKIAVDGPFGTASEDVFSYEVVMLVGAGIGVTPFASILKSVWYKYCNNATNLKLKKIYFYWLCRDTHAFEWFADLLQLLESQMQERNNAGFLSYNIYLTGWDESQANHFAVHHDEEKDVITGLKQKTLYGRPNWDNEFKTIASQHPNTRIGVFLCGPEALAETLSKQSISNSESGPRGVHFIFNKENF
T1 sequence (P13498 2-195 partner limits assumed): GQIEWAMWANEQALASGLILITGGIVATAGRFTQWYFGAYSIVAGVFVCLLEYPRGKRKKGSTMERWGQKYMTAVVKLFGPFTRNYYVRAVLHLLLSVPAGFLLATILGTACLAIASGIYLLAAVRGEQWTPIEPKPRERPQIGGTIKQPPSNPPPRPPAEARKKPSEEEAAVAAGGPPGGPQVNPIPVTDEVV
The experiment in a line: Superoxide production in fMLP-treated human neutrophils. The assay is classed as cell-based. To be noted: 10 μM.

Assay [3] concerns DLD1 cells. The experiment in a line: ECM degradation assay. The assay is classed as cell-based, human. The following applies: SrcYF-transfected DLD1 cells, 10 μM, 1.5hrs.
Assay [4] addresses T1, Nox2. The assay can be described thus: Nox2 cell-free system. The assay is classed as biochemical. To be noted: 10 μM.
The target of assay [5] is T2, Nox1 (Homo sapiens, UniProt Q9Y5S8).
T2 sequence (Q9Y5S8 1-564): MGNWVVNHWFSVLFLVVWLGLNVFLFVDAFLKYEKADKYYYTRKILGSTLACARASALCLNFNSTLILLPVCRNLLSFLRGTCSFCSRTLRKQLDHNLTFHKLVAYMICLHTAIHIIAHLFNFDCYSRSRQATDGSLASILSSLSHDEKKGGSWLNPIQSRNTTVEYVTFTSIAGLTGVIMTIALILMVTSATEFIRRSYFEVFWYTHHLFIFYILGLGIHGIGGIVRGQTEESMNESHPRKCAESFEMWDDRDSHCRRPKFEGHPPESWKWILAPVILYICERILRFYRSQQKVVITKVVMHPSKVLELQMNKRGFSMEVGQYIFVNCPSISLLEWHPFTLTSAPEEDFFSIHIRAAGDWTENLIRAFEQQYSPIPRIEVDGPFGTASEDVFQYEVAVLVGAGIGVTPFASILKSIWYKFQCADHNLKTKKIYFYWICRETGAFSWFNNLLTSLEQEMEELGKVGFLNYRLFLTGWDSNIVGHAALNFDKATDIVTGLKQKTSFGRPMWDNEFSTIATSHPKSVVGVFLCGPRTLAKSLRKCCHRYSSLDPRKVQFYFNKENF
T2 sequence (P13498 2-195 partner limits assumed): T1 sequence (P13498 2-195 partner limits assumed)
The experiment in a line: HEK293-Nox1 reconstituted cell system, ROS generation by CL assay. To be noted: HEK293-Nox1 reconstituted cell system treated with ML171.

In assay [6] the target is serotonin 5-HT2B receptor (Homo sapiens, UniProt P41595). The experiment in a line: Competitive binding assay. Details: species or system human or rodent.
Chain of serotonin 5-HT2B receptor (P41595 whole entry): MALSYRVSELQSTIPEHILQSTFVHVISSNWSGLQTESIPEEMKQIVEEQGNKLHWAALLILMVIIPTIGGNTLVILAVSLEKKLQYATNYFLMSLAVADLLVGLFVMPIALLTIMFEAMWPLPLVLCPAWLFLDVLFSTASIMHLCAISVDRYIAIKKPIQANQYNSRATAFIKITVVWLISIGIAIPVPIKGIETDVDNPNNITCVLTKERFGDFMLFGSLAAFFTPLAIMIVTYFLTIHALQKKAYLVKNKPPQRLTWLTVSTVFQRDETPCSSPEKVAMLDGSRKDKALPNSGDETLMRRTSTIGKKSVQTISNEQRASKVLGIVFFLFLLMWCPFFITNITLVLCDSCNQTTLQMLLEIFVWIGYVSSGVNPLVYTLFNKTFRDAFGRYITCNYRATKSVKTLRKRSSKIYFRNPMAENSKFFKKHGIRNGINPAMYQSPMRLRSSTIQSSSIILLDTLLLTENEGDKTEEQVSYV
The subject of assay [7] is DLD1 cells. The experiment in a line: SrcYF-induced invadopodia formation. The assay is classed as cell-based, human. The following applies: SrcYF-transfected DLD1 cells, treated 1hr; ML171 10 μM.
The next assay addresses xanthine oxidase (XO) (Bos taurus, UniProt P80457). The experiment in a line: Xanthine oxidase specificity assay. The assay is classed as biochemical.
For assay [8], the system named is G-protein coupled receptors (GPCRs), channels and transporters expressed in the CNS. The assay can be described thus: Competitive binding to a large battery of CNS receptors. Details: species or system human or rodent.
The next assay deals with Rac1 (Homo sapiens, UniProt P63000). The assay can be described thus: Rac loading assay. The assay is classed as biochemical. To be noted: recombinant Rac1, compared with Mg2+ positive control.
In the next assay the test system is ROS production. The experiment in a line: ROS production measured by carboxy-H2-DCFDA staining. The assay is classed as cell-based. To be noted: second method of ROS detection.
Assay [9] concerns the target T3, adrenergic alpha2C receptor (Homo sapiens, UniProt P18825).
T3 sequence (P18825 1-462): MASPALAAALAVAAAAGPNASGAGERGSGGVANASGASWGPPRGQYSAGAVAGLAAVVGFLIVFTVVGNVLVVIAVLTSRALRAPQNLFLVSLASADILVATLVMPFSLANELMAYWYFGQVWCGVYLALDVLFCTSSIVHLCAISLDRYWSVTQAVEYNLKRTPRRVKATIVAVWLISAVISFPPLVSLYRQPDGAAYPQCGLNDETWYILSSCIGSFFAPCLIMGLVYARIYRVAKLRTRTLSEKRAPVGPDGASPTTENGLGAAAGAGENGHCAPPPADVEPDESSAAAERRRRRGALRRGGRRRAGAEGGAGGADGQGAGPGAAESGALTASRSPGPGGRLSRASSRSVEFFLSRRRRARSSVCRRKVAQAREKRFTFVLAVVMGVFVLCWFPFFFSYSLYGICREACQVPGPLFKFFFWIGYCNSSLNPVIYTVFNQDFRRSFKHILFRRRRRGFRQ
The experiment in a line: Competitive binding assay. Details: species or system human or rodent.

Assay [10] deals with T4, serotonin 5-HT2C receptor (Homo sapiens, UniProt P28335).
T4 sequence (P28335 33-458): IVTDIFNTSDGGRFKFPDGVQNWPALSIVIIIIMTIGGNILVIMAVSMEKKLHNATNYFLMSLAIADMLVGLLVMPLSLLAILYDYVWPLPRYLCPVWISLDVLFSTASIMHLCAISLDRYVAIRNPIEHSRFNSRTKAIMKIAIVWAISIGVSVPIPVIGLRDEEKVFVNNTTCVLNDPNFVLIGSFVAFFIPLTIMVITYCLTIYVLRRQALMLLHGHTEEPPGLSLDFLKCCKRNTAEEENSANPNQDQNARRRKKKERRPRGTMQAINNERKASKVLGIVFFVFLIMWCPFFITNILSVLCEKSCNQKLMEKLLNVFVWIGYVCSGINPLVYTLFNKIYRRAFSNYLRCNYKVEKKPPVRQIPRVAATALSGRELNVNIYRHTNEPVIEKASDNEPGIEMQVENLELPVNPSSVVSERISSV
The assay can be described thus: Competitive binding assay. Details: species or system human or rodent.

Assay [11] addresses T2, Nox1. The assay can be described thus: Luminol-based chemiluminescence. The assay is classed as cell-based. To be noted: for ability to block Nox1-dependent ROS generation: HT29 cells, luminol-based CL assay.
The mark [12] stands for this setting: secondary concentration-response analysis.
[13] abbreviates: HT29 cell-based assay, ROS generation, SAR study.
[14] abbreviates: read-out: Micromolar IC50 HT29 Assay, HT29 cell-based assay, ROS generation, SAR study.

Read-outs that look alike come from different tables or passages of the source. Where only a bound is given, the exact number is not on record here.

Chain of xanthine oxidase (XO) (P80457 2-1332): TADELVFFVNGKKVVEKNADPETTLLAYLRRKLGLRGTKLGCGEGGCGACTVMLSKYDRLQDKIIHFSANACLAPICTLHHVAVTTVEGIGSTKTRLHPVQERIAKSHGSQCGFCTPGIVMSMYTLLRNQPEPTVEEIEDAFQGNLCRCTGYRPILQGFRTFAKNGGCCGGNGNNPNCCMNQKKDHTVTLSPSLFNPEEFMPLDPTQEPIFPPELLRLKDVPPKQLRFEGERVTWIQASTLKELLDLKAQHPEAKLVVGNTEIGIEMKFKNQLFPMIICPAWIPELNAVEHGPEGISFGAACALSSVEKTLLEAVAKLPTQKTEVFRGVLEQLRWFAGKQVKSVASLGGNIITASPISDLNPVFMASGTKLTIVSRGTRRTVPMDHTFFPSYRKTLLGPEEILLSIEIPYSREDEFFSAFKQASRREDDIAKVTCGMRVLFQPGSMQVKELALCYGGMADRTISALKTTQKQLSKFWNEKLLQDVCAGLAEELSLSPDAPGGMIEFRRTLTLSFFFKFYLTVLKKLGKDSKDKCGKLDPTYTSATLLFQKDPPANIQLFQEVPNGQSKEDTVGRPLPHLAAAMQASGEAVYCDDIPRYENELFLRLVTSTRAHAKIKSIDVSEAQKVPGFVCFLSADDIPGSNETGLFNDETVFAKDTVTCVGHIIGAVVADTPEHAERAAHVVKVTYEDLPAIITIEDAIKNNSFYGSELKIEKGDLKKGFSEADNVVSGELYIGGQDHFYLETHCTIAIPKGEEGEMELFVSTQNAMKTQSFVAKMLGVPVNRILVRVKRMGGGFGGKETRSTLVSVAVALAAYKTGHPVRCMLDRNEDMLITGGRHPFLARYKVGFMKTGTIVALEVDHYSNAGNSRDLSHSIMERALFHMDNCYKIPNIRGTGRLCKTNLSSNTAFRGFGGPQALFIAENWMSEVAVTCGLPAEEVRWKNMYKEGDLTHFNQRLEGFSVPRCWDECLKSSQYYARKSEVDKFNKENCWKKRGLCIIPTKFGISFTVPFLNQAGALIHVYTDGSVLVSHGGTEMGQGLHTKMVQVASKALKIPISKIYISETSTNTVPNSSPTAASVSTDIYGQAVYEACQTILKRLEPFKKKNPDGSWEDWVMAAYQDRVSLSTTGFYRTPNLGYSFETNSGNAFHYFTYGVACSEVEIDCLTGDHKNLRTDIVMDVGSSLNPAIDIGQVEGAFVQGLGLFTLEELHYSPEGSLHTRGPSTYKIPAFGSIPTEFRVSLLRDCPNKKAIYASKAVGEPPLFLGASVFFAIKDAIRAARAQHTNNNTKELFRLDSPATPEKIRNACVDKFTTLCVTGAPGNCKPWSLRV

Take `c1ccc2c(c1)[I+]c1ccccc1-2` [DPI, diphenylene iodonium, reference compound]: in assay [1], the “mitochondrial ROS generation” value is given as “slightly reduced ROS generation in mitochondria”. Also, the “superoxide formation” value at Nox2 [2] and at Nox2 [4] was “dramatically inhibit superoxide formation” in each case. For the same compound, the ECM degradation result in the assay on DLD1 cells [3] is recorded as “blocked this effect”.
For `CC(=O)c1ccc2c(c1)Nc1ccccc1S2` [ML171, 2-acetylphenothiazine], on Nox1 [5], the “rescue of ROS generation by over-expression of Nox1, NoxA1 or NoxO1” value is on record as “only increasing over-expression of Nox1 could rescue ROS generation”. In assay [1], the “mitochondrial ROS generation” value was “did not decrease mitochondrial ROS generation”. Also, the “% of inhibition” value in assay [6] (primary binding assay), in assay [9] (primary binding assay) and in [10] (primary binding assay) was greater than 60% throughout. Besides, the Ki result in assay [6] (setting [12]), in assay [9] (setting [12]) and in assay [10] (setting [12]) was “micromolar range” throughout. In addition, the invadopodia formation result in the assay with DLD1 cells [7] was “strongly decreased SrcYF-induced invadopodia formation”. Further, the “inhibition of XO-dependent ROS generation” value at xanthine oxidase (XO) is given as “unable to inhibit XO-dependent ROS generation”. Further, in [8], the “binding to receptors of the battery” value is listed as “did not significantly bind most of the receptors tested”. Moreover, the “block of Rac1 loading with GTP” value on Rac1 is listed as “only marginally block Rac1 loading”. Also, in the assay on ROS production, the “ROS production by carboxy-H2-DCFDA staining” value is “efficiently blocks ROS production”. Moreover, the ECM degradation result in the assay with DLD1 cells [3] is recorded as “strongly reduced the ability of SrcYF-transfected DLD1 cells to degrade the ECM”.
As for `OCCN1CCN(CCCN2c3ccccc3Sc3ccc(Cl)cc32)CC1` [SR-01000000137-4], the “Micromolar IC50 HT29 Assay” value on Nox1 [11] (setting [13]) is given as “Inactive (AID 2808)”.
Same read-out and setting: for `CN(C)CCCN1c2ccccc2Sc2ccc(C(F)(F)F)cc21` [SR-01000000224-4, Triflupromazine, reference compound] the value was “Inactive (AID 2808)”; for `CN(C)CCCN1c2ccccc2Sc2ccccc21` [SR-01000000228-4, promazine, reference compound], “Inactive (AID 2808)”; for `CN1CCN(CCCN2c3ccccc3Sc3ccc(C(F)(F)F)cc32)CC1.Cl.Cl` [SR-01000003020-6], “Inactive (AID 2808)”.
Take `Cl.Cl.OCCN1CCN(CCCN2c3ccccc3Sc3ccc(C(F)(F)F)cc32)CC1` [SR-01000003048-5, Fluorophenazine, reference compound]: the “Micromolar IC50 HT29 Assay” value at Nox1 [11] (setting [13]) is listed as “Inactive (AID 2808)”.
For orientation: IC50 means the concentration at which inhibition is half-maximal. Turning to `COc1ccc2c(c1)Sc1ccccc1N2` [SR-01000025134-3], the IC50 on Nox1 [11] (setting [14]) was 940 nM.
`CCOC(=O)Nc1ccc2c(c1)Nc1ccccc1S2` [SR-01000477673-3]: the IC50 on Nox1 [11] (setting [14]) was found to be 920 nM.
On the same count and under the same terms, for `Clc1ccc2c(c1)Nc1ccccc1S2` [SR-01000596948-2] the value was 250 nM.
Same read-out and setting: the value for `c1ccc2c(c1)Nc1ccccc1S2` [SR-01000721844-3] was 370 nM.
With `O=[N+]([O-])c1ccc2c(c1)Sc1ccc(C(F)(F)F)cc1N2` [SR-03000000695-1], the IC50 on Nox1 [11] (setting [14]) was 1400 nM.
With `COc1ccc2c(c1)Sc1ccc(Cl)cc1N2` [SR-03000000698-1], the half-maximal inhibitory concentration (IC50) at Nox1 [11] (setting [14]) was 177 nM.
On to `Cc1ccc(S(=O)(=O)c2ccc3c(c2)Sc2ccc(Cl)cc2N3)cc1` [SR-03000000707-1], for which the IC50 at Nox1 [11] (setting [14]) is 5300 nM.
As for `CC(O)c1ccc2c(c1)Nc1ccccc1S2` (stereo not drawn) [SR-03000000760-1], the IC50 on Nox1 [11] (setting [14]) was 360 nM.
Take `CN(C)CCCN1c2ccccc2Sc2ccc(Cl)cc21` [chlorpromazine, reference compound]: the invadopodia formation entry in the assay with DLD1 cells [7] is recorded as “did not observe a decreased ability of DLD1 cells to form cortactin-positive, F-actin-rich invadopodia”. Further, the IC50 on Nox1 [11] was greater than 50000 nM. Moreover, at Nox1 [11] (setting [13]), the “Micromolar IC50 HT29 Assay” value is listed as “Inactive (AID 2808)”.
On to `OCCN1CCN(CCCN2c3ccccc3Sc3ccc(Cl)cc32)CC1` [perphenazine, reference compound], for which, on Nox1 [11], the “ability to block Nox1-dependent ROS generation” value is recorded as “unable to block Nox1-dependent ROS generation”.
With `CN1CCN(CCCN2c3ccccc3Sc3ccc(C(F)(F)F)cc32)CC1` [trifluperazine, reference compound], the “ability to block Nox1-dependent ROS generation” value on Nox1 [11] is listed as “unable to block Nox1-dependent ROS generation”.
